Experimental data taken from patent US7491835B2, “Prodrugs of amino acids with affinity for the α2δ-protein” (Pfizer Inc, priority 2003, dated 2009).
One block for each compound: values may come before it.

Legend:
[1] = Vogel conflict model of anxiety; assay type: in vivo; details: 30 mg/kg, PO
Source text: The In vivo activity of compounds of this invention can be determined in animal models of hyperalgesia (See Sluka, K., et al. 2001, “Unilateral Intramuscular Injections Of Acidic Saline Produce A Bilateral, Long-Lasting Hyperalgesia”, Muscle Nerve 24: 37-46; Dixon, W., 1980, “Efficient analysis of experimental observations”. Ann Rev Pharmacol Toxicol 20:441-462; Randall L. O. and Selitto J. J., “A Method For Measurement Of Analgesic Activity On Inflamed Tissue,” Arch. Int. Pharmacodyn, 1957;4:409-419; Hargreaves K., Dubner R., Brown F., Flores C., and Joris J. “A New And Sensitive Method For Measuring Thermal Nociception In Cutaneous Hyperalgesia”. Pain. 32:77-88, 1988.), anxiety (Vogel J. R., Beer B., and Clody D. E., “A Simple And Reliable Conflict Procedure For Testing Anti-Anxiety Agents”, Psychopharmacologia 21:1-7, 1971),
The In vivo activity of a compound of this invention was determined in an animal model of anxiety as set forth in Vogel J R, Beer B., and Clody D E, “A Simple And Reliable Conflict Procedure For Testing Anti-Anxiety Agents”, Psychopharmacologia 21:1-7, 1971).

in vitro = details: human, Caco-2
Procedure: (§1) Mannitol was used as a negative marker since it appears to be absorbed through the paracellular rather than the transcellular pathway. Cell transport, and efflux studies were conducted with Caco-2 cells grown on Snapwells between 22 to 28 days postseeding. Typically, 10 mM MES buffer (pH 6.5) with 5 mM KCl, 135 mM NaCl, 1.8 mM CaCl2, and 5 mM D-glucose was used for the AP side and 10 mM MOPS (pH 7.4) with 5 mM KCl, 132.5 mM NaCl, 1.8 mM CaCl2, and 5 mM D-glucose was used for the BL side. After washing the monolayers, drug-free media at the appropriate pH (pH 7.4 or 6.5) were first added to both compartments to allow the cells to equilibrate for approximately 15 min at 37° C. Transport studies were then conducted using 1.5 mL of transport media in the apical side and 2.5 mL in the basolateral side. The donor solution containing the probe compound was added to either the apical or basolateral compartment. Plates were placed in a shaking incubator (Boekel Scientific, Feasterville, Pa.) at 37° C. during the experiments. Transport in both apical-to-basolateral (A-to-B) and basolateral-to-apical (B-to-A) directions was measured for each drug. Aliquots were removed from the nondosing compartment at predetermined time points and replaced with fresh medium to maintain a constant volume. During studies with radiolabeled compounds, 100 uL samples were taken at each time point. The apparent permeability coefficients (Papp) were calculated using the following equation: Papp=dQ/dtX1/CoX1/A, where dQ/dt is the permeability rate, Co is the initial concentration in the donor compartment, and A is the surface area of the membrane. Flux rates (dQ/dt×1/A) were calculated by plotting the amount transported per unit area as a function of time and determining the slope of the line using linear regression.

Caco-2 cells = assay: Caco-2 cell transport and efflux (permeability) study
Procedure: as §1

SMILES: CCC[C@@H](C)C[C@H](CNC(=O)[C@@H](N)CC(C)C)CC(=O)O [3S-[(2S-Amino-4-methyl-pentanoylamino)-methyl]-5R-methyl-octanoic acid]
Anxiolytic Activity, percent reference activity compared to pregabalin [1]: 138.10%

Papp A→B (in vitro): 87.4 nm/s | Papp B→A (in vitro): 203 nm/s
SMILES: COCCc1ccc(OCC(O)CNC(C)C)cc1 (stereo not drawn) [Metoprolol]

SMILES: CCCC[C@@H](C)C[C@H](CNC(=O)[C@@H](N)CC(C)C)CC(=O)O [3S-[(2S-Amino-4-methyl-pentanoylamino)-methyl]-5R-methyl-nonanoic acid]
Substrate for efflux (Caco-2 cells; Caco-2, 10 uM, concluded from ratio B to A/A to B): unlikely to be a substrate for efflux | A to B Peff * 10^−6 (Caco-2 cells; Caco-2, apical to basal, apical pH 6.5, basolateral pH 7.4, 37° C.): 0.74 10^−6 | Caco-2 permeability, apical to basolateral direction (Caco-2 cells; concentration of 10 uM): 7.4 nm/s

Papp A→B (in vitro): 18.1 nm/s | Papp B→A (in vitro): 14.1 nm/s | efflux ratio (in vitro): 0.78
SMILES: OC[C@@H](O)[C@@H](O)[C@H](O)[C@H](O)CO [Mannitol]
